Laboratory results as given in PubChem BioAssay AID1963869 (Molecular Pharmacology Branch, DTP, NCI, 2024).

Test system: KRAS patient-derived spheroids with HUVEC/MSC, viability
Test: Anticancer human tumor 323965-272-R-J2-PDC patient-derived pancreatic carcinoma cell line growth inhibition [KRAS2]
Conditions: for viability, T/C: stronger effect = lower value; active = viability on the fitted dose curve at most 10% of control; inactive = the rest
Description: Multicellular complex tumor spheroid response to RAS pathway inhibitors in combination with a targeted agents in patient-derived cell lines with oncogenic KRAS variants from multiple cancer types
A high-throughput screen of multi-cell type tumor spheroids was designed to identify active combinations of targeted small molecules and KRAS pathway inhibitors. Complex spheroids include a stromal component modeled by human endothelial cells (HUVEC) and fibroblasts modeled by human mesenchymal stem cells (MSCs). The concentration ranges selected for each drug and investigational agent were based upon clinically achievable concentrations if the clinical Cmax of the agent was known.
Compounds. The drugs and investigational agents: BI-3406 (NSC825286), BAY-293 (NSC824723), batoprotafib (TNO155; NSC825523), sotorasib (AMG 510; NSC818433), MRTX1257 (NSC819558), elimusertib (BAY 1895344; NSC800525), molibresib (GSK525762; NSC774829), temuterkib (LY3214996; NSC803410), venetoclax (NSC766270), alisertib (NSC759677), olaparib (NSC753686), talazoparib (NSC767125), erdafitinib (NSC781556), ipatasertib (NSC767898), cabozantinib (NSC761068), nintedanib (NSC756659), abemaciclib (NSC768073), docetaxel (NSC628503), trametinib (NSC758246), and sapanisertib (NSC764658) were obtained from the National Cancer Institute (NCI) Developmental Therapeutics Program Chemical Repository. The FDA-approved anticancer drug set is available from the Developmental Therapeutics Program. […] The stock solutions were prepared in dimethyl sulfoxide (DMSO, Sigma-Aldrich, St. Louis, MO, cat. D2650) at 800-fold the tested concentration and stored at -70 degrees C prior to their use. All drugs and investigational agents were tested over a range starting from a high concentration at or near the clinical Cmax and decreasing in half-log increments. If the clinical Cmax for an agent had not been determined, the highest concentration tested was 10 microM.
Cell Culture. All cells were maintained in an incubator at 37 degrees C and 5% CO2 with 95% humidity. The PDC lines were cultured according to standard operating procedures established by the NCI PDMR (https://pdmr.cancer.gov/sops/default.htm). Briefly, all PDCs were thawed and cultured in Matrigel-coated flasks prepared with a working solution of 1X Ham's F-12 nutrient mix, without supplementation (Invitrogen, Waltham, MA, cat. 11765054), 100 U/mL penicillin-streptomycin (Invitrogen, cat. 15140122), and 2.5% Matrigel (Corning Inc., Corning, NY, cat. 354248) for the first three passages. All PDCs were cultured in complete DMEM/F-12 media containing advanced DMEM/F-12 (Invitrogen, cat. 12634028), 4.9% defined fetal bovine serum, heat inactivated (HyClone Laboratories Inc., Logan, UT, cat. SH30070.03HI), 389 ng/mL hydrocortisone (Sigma-Aldrich, cat. H4001), 9.7 ng/mL human EGF recombinant protein (Invitrogen, cat. PHG0313), 23.4 microg/mL adenine (Sigma-Aldrich, cat. A2786), 97.3 U/mL penicillin-streptomycin (Invitrogen, cat. 15140122), 1.9 mM L-glutamine (Invitrogen, cat. 25030081), and 9.7 microM Y-27632 dihydrochloride (Tocris Bioscience, Bristol, United Kingdom, cat. 1254). The PDCs were cultured in complete DMEM/F12 media without 9.7 microM Y-27632 dihydrochloride for at least two passages prior to the screen. The established cell line HOP-62 was cultured in RPMI 1640 medium, HEPES (Invitrogen, cat. 22400105) with 10% defined fetal bovine serum (HyClone Laboratories Inc., cat. SH30070.03) and 2 mM L-glutamine (Invitrogen, cat. 25030081). The pooled donor HUVEC were cultured in endothelial cell growth medium 2 (PromoCell, Heidelberg, Germany, cat. C-22011) and the hMSC were cultured in mesenchymal stem cell growth medium 2 (PromoCell, cat. C-28009). For all experiments, HUVEC and hMSC were used at passages </=5, while the malignant cell lines were used at passages </=15. […]
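Note: spheroids exposed to agents for 7 days.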

CC(C)NCC(C(=O)N1CCN(c2ncnc3c2C(C)CC3O)CC1)c1ccc(Cl)cc1 (centres undefined) + CNCc1ccccc1-c1csc(C(C)Nc2nc(C)nc3cc(OC)c(OC)cc23)c1
< 31.6 nM: IC50 (curve of first compound, second compound 10 µM)
532 nM: IC50 (curve of first compound, second compound 3.16 µM)
1330 nM: IC50 (curve of first compound, second compound 1 µM)
active: viability, T/C (second compound 10 µM, first compound 0.0316 µM) 0.27% | viability, T/C (second compound 10 µM, first compound 0.1 µM) 0.28% | viability, T/C (second compound 10 µM, first compound 0.316 µM) 0.23% | viability, T/C (second compound 10 µM, first compound 1 µM) 0.59% | viability, T/C (second compound 10 µM, first compound 3.16 µM) 0.71% | viability, T/C (second compound 10 µM, first compound 10 µM) 0.19%
1060 nM: IC50 (curve of first compound, second compound 0.316 µM)
1570 nM: IC50 (curve of first compound, second compound 0.1 µM)
inactive: viability, T/C (second compound 0.1 µM, first compound 0.0316 µM) 90.9% | viability, T/C (second compound 0.1 µM, first compound 0.1 µM) 85.4% | viability, T/C (second compound 0.1 µM, first compound 0.316 µM) 70.6% | viability, T/C (second compound 0.1 µM, first compound 1 µM) 55.8% | viability, T/C (second compound 0.1 µM, first compound 3.16 µM) 41.7% | viability, T/C (second compound 0.1 µM, first compound 10 µM) 36% | viability, T/C (second compound 0.316 µM, first compound 0.0316 µM) 94.2% | viability, T/C (second compound 0.316 µM, first compound 0.1 µM) 85.2% | viability, T/C (second compound 0.316 µM, first compound 0.316 µM) 72.9% | viability, T/C (second compound 0.316 µM, first compound 1 µM) 48.1% | viability, T/C (second compound 0.316 µM, first compound 3.16 µM) 41.4% | viability, T/C (second compound 0.316 µM, first compound 10 µM) 33% | viability, T/C (second compound 1 µM, first compound 0.0316 µM) 94.9% | viability, T/C (second compound 1 µM, first compound 0.1 µM) 91.8% | viability, T/C (second compound 1 µM, first compound 0.316 µM) 79.9% | viability, T/C (second compound 1 µM, first compound 1 µM) 54.4% | viability, T/C (second compound 1 µM, first compound 3.16 µM) 36.7% | viability, T/C (second compound 1 µM, first compound 10 µM) 32.9% | viability, T/C (second compound 3.16 µM, first compound 0.0316 µM) 88.3% | viability, T/C (second compound 3.16 µM, first compound 0.1 µM) 73.2% | viability, T/C (second compound 3.16 µM, first compound 0.316 µM) 58.5% | viability, T/C (second compound 3.16 µM, first compound 1 µM) 43% | viability, T/C (second compound 3.16 µM, first compound 3.16 µM) 21.5% | viability, T/C (second compound 3.16 µM, first compound 10 µM) 18%

Cn1nccc1Nc1nccc(-c2cc3c(s2)C(C)(C)N(CCN2CCOCC2)C3=O)n1
2.35 µM [middle of 5 runs]: IC50 (curve of compound)
inactive: viability, T/C (compound 0.0316 µM) 92.9% [middle of 5 runs] | viability, T/C (compound 0.1 µM) 87.8% [middle of 5 runs] | viability, T/C (compound 0.316 µM) 77.6% [middle of 5 runs] | viability, T/C (compound 1 µM) 61.5% [middle of 5 runs] | viability, T/C (compound 3.16 µM) 43.7% [middle of 5 runs] | viability, T/C (compound 10 µM) 38.1% [middle of 5 runs]

CC(C)n1nc(-c2ccc3oc(N)nc3c2)c2c(N)ncnc21
inactive: viability, T/C (compound 0.000316 µM) 91% [middle of 5 runs] | viability, T/C (compound 0.001 µM) 81.3% [middle of 5 runs] | viability, T/C (compound 0.00316 µM) 54.4% [middle of 5 runs] | viability, T/C (compound 0.01 µM) 33.1% [middle of 5 runs] | viability, T/C (compound 0.0316 µM) 24.4% [middle of 5 runs] | viability, T/C (compound 0.1 µM) 21.4% [middle of 5 runs]
4 nM [middle of 5 runs]: IC50 (curve of compound)
